Patent publication US8158589B2, “Peptides with the capacity to bind to transforming growth factor β1 (TGF-β1)” (Proyecto Biomedicine Cima, S.L., priority 2003, dated 2012)
Ends that are not written are not given here.

Key:
TGF-β1 [1] = biological target: TGF-β1 (Homo sapiens, UniProt P01137); assay: Western Blot of p-Smad2, Smad2/3 and Smad7 in primary culture of rabbit corneal fibroblasts; type: cell-based; parameters: host or cells: added to a primary culture of rabbit corneal fibroblasts; settings: primary culture, TGF-β1 and peptide
Chain of TGF-β1 (Homo sapiens, UniProt P01137) (P01137 279-390 limits assumed, species assumed): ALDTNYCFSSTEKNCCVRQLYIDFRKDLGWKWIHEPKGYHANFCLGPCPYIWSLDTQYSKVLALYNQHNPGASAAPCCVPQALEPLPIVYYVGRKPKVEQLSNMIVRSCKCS
Procedure: Therefore, Western Blot and immunofluorescence studies were conducted to determine, from cells extracted from the in vivo studies, the signaling pathway used by the peptides administered topically. It should be emphasized that said studies were conducted on fibroblasts from rabbit cornea and not from rat cornea. This decision was made due to the difficulty entailed in isolating fibroblasts from rodent eyes.
Since the scientific literature repeatedly describes the TGF-β1 signaling pathways, the decision was made to go into depth in such pathways by means of the techniques described in the methodology section. Said pathways involve the study of the Smad protein family, specifically the study of the isoforms Smad2, 2/3 and 7.
To that end, protein extracts obtained from the primary culture of rabbit fibroblasts were treated with TGF-β1 at concentrations of 0, 3 and 5 ng/ml and, 50 and 200 μg/ml of peptide p17 and p144.

TGF-β1 [2] = biological target: T1, TGF-β1 (Mus musculus, UniProt P04202); assay: Bleomycin-induced pulmonary fibrosis, therapeutic treatment started ten days after bleomycin; type: in vivo, mice
T1 construct: from tissue; host or cells: liver of Balb/C mice (CCl4 model); lung of C57BL/6 mice (bleomycin model)
T1 sequence (P04202 279-390 limits assumed): as the sequence (P01137 279-390 limits assumed, species assumed) above, with A75S counted along it
Procedure: Female C57BL/6 mice (6-8 weeks of age) were obtained from Harlan SL (Barcelona, Spain) and maintained in accordance with the ethical committee of Universidad de Navarra (Spain) for the experimental use of animals. Lung injury was induced with 0.08 units/mouse of bleomycin sulfate (Sigma, Spain) diluted in 200 μl of phosphate buffered saline (PBS). Briefly, the suspension of bleomycin was instilled by pippeting into the nose of mice previously anesthetized with 2% isoflurane vapor. PBS was instilled in mice as a negative control for pulmonary fibrosis (PF), following the same procedures. Peptide treatment was started two days after bleomycin challenge and it was administered intraperitoneally in 500 μl of PBS on alternate days. Mice received high (75 μg/mouse) or low (25 μg/mouse) doses of P17, or the high dose (75 μg/mouse) of control peptide P301. Lungs were obtained 15 or 26 days after bleomycin administration to evaluate profibrogenic gene expression or histological damage, respectively. To study the therapeutic effect of P17 in the development of fibrosis, it was administered daily ten days after bleomycin challenge, once fibrosis was established. […]
Lungs were fixed by inflation with 4% paraformaldehyde overnight and dehydrated in 70% ethanol. […] Percentage of fibrosis in the lung was evaluated by light microscopy by three different qualified persons using a blinded system.

TGF-β1 [3] = biological target: T2, TGF-β1 (Rattus norvegicus, UniProt P17246); assay: Corneal fibrosis and haze after 1 N NaOH damage, topical eye drops, photographs analysed with ImageJ; type: in vivo, Long-Evans rats; settings: fifth formulation eye drops, treated right eye vs control left eye
T2 construct: from tissue; host or cells: cornea of Long-Evans rats
T2 sequence (P17246 279-390 limits assumed): as the sequence (P01137 279-390 limits assumed, species assumed) above, with A75S counted along it
Description: Male Long-Evans rats aged 10 weeks were used, divided into 5 groups: • Group 1: 12 rats, 6 treated with dexamethasone and 6 treated with mitomycin C • Group 2: 12 rats, 6 treated with p17 of the first formulation (see section 6.1.2.b) and 6 treated with p144 of the first formulation (see section 6.1.2.b) • Group 3: 12 rats, 6 treated with p17 of the second formulation (see section 6.1.2.b) and 6 treated with p144 of the second formulation (see section 6.1.2.b) • Group 4: 12 rats, 6 treated with p17 of the third formulation (see section 6.1.2.b) and 6 treated with p144 of the third formulation (see section 6.1.2.b) • Group 5: 12 rats, 6 treated with p17 of the fourth formulation (see section 6.1.2.b) and 6 treated with p144 of the fourth formulation (see section 6.1.2.b) • Group 6: 12 rats, 6 treated with p17 of the fifth formulation (see section 6.1.2.b) and 6 treated with p144 of the fifth formulation (see section 6.1.2.b)
To perform the damage in the cornea, the animals were anesthetized with isoflurane and a 5 mm Whatman paper disc impregnated in 1 N NaOH for 30 seconds was applied to them in the central part of the eye. After the damage, they were washed with abundant physiological saline serum and an antibiotic ointment was applied to them to prevent possible infections in the affected area.
After conducting several in vivo studies with the previously described groups of animals, it could be concluded that the chemical damage occurring after the application of NaOH for 30 seconds caused an excessive lesion for the study which was to be conducted, therefore it was decided to conduct new experiments reducing the time to 15 seconds.
It was randomly established that the left eye of each animal would act as a control and that the right eye would be the treated eye, such that the same animals acts as a control in addition to being treated. It must be pointed out that all the animals received antibiotic treatment in both eyes daily only during the first week of the study for the purposes of avoiding microbial keratitis.
Starting from 0.15% sodium hyaluronate (Hyabak 10 mL, Thea) without preservatives: • p144: 20 mg were dissolved in 5 ml of eye drops, 40 μl of saturated concentrated NaOH were incorporated, stirring and adding in portions of 5 μl. It was sonicated until solubilization. To adjust the pH, 500 μl of 1M Hepes were added, such that the pH changed from 10.5 to 7 • p144 control: 40 μl of saturated NaOH and 500 μl of 1 M HEPES (final concentration of HEPES 50 mM) • p17: 20 mg were dissolved in 5 ml of the eye drops, it was sonicated until complete solubilization and it was incorporated to the vial with a 10 ml syringe and a blue needle to perforate the filter of the contained (final concentration 2 mg/ml) • p17 control: non-manipulated eye drops • Note: The formulations were maintained at 4° C. throughout the study.
The administration of the treatment was initiated twenty-four hours after the damage. After that time a follow-up of the damage was performed, which consisted of taking photographs at days 0, 7, 14, 21, 28 and 35. To take the photographs the animals were anesthetized with isoflurane. Photographs were taken of both the control eye (left) and of the treated eye (right) with and without fluorescein. The photographs with fluorescein allowed to observe the evolution of the epithelial closure of the generated lesion, whereas the photographs without fluorescein show the evolution of the haze of the lesioned area. […]

expression of Smad 2/3 (TGF-β1 [1]): not affected | expression of Smad 7 (TGF-β1 [1]): not modified | lung fibrosis (Masson's Trichrome), established fibrosis (TGF-β1 [2]; 25 μg/mouse daily from day 10, day 26): No beneficial effect | lung fibrosis (Masson's Trichrome), established fibrosis (TGF-β1 [2]; 75 μg/mouse daily from day 10, day 26, vs untreated mice): significant attenuation of fibrosis
Sequence: KRIWFIPRSSWYERA [SEQ ID NO: 17, KRIWFIPRSSWYERA]
corneal haze (TGF-β1 [3]): clear decrease | epithelial closure (fluorescein) (TGF-β1 [3]): clear decrease
